Tests used:
[1] = tested on: IL-1beta production in LPS-stimulated human monocytes; experiment: LPS-stimulated production of IL-1beta in human monocytes in vitro (ELISA); assay type: cell-based; conditions: for IL-1beta: LPS, 20 hours
From the text: 1,8-Cineol intensifies in particular the action of subtherapeutic concentrations of beclometasone which are relevant for the peripheral respiratory tract.

[2] = tested on: FCS-stimulated production of superoxides (O2^−) in normal human monocytes; experiment: FCS-stimulated superoxide production of normal human monocytes in vitro (INT-formazan); assay type: cell-based; conditions: for O2^−: FCS 10%
Method: As already described, monocytes were isolated from 50 ml of venous blood which was repeatedly donated voluntarily for the experiments by healthy non-smoking subjects (n=4). […] To this end, the active compounds were incubated together with freshly isolated monocytes (10^5/ml) and the FCS stimulus (10%, from Sigma) for 20 hours in a cell culture medium (RPMI-1640, from Sigma). […] The determination of the cytosolic superoxide production is based on the reduction of the dye p-iodonitrotetrazolium violet (INTV), which reacts specifically with superoxide ions, to iodonitrotetrazolium formazan (formazan). INTV is taken up by the cells into the cytosol. Intracellularly, the nitrogen cycle of the INTV is reduced by free superoxide radicals, giving rise to a water-soluble intermediate and the water-insoluble formazan, which have their absorption maxima at 505 and 490 nm, respectively. […] At the end of an experiment, the cell lysate is (after treatment with hydrochloric acid) measured at 492 nm in a photometer. Here, the absorption of light is proportional to the amount of intracellularly accumulated INT-formazan which can then be determined using a formazan calibration curve. The INT-formazan accumulation for its part is determined as a measure for the intracellular production of superoxide.

[3] = becl. 10^−9 mol/l, Table 5 series
[4] = becl. 10^−9 mol/l, Table 6 series
[5] = becl. 10^−10 mol/l, Table 5 series
[6] = becl. 10^−10 mol/l, Table 6 series
[7] = becl. 10^−11 mol/l, Table 5 series
[8] = becl. 10^−11 mol/l, Table 6 series

C[C@H]1C[C@H]2[C@@H]3CCC4=CC(=O)C=C[C@]4(C)[C@@]3(Cl)[C@@H](O)C[C@]2(C)[C@@]1(O)C(=O)CO [beclometasone]
Effect vs. cineol 10^−6 mol/l Inhibition (%) ([1]; beclometasone 10^−9 mol/l): 25.2 ± 20%
Effect vs. control Inhibition (%) ([1]; beclometasone 10^−9 mol/l): 49.4 ± 20%
IL-1beta ([1]; beclometasone 10^−9 mol/l): 2654 ± 545 Pg/5 × 10^4 cells
Effect vs. control Inhibition (%) ([1]; beclometasone 10^−10 mol/l): 22.9 ± 23%
production of IL-1beta, change ([1]; beclometasone 10^−10 mol/l): −22.9%
Effect vs. cineol 10^−6 mol/l Inhibition (%) ([1]; beclometasone 10^−10 mol/l, (+) in brackets = more IL-1beta than with cineol): (+14 ± 23) %
IL-1beta ([1]; beclometasone 10^−10 mol/l): 4047 ± 940 Pg/5 × 10^4 cells
Effect vs. control Inhibition (%) ([1]; beclometasone 10^−11 mol/l): 19.7 ± 20%
production of IL-1beta, change ([1]; beclometasone 10^−11 mol/l): −19.7%
Effect vs. cineol 10^−6 mol/l Inhibition (%) ([1]; beclometasone 10^−11 mol/l, (+) in brackets = more IL-1beta than with cineol): (+18.9 ± 20) %
IL-1beta ([1]; beclometasone 10^−11 mol/l): 4217 ± 864 Pg/5 × 10^4 cells
Effect vs. control Inhibition (%) ([1]; beclometasone 10^−12 mol/l): 0.1 ± 19%
production of IL-1beta, change ([1]; beclometasone 10^−12 mol/l): 0%
Effect vs. cineol 10^−6 mol/l Inhibition (%) ([1]; beclometasone 10^−12 mol/l, (+) in brackets = more IL-1beta than with cineol): (+47.8 ± 19) %
IL-1beta ([1]; beclometasone 10^−12 mol/l): 5246 ± 1028 Pg/5 × 10^4 cells
inhibition of LPS-stimulated production of IL-1beta ([1]; beclometasone on its own, concentration not given): 49.9±20%
O2^− [2, 3]: 16052 ± 969 nmol/mL
O2^− [2, 4]: 17338 ± 1305 nmol/mL
Percent of control [2, 3]: −10 ± 6%
Percent of control [2, 4]: −8 ± 7%
O2^− [2, 5]: 16445 ± 903 nmol/mL
O2^− [2, 6]: 17577 ± 1191 nmol/mL
Percent of control [2, 5]: −8 ± 5%
Percent of control [2, 6]: −6 ± 7%
O2^− [2, 7]: 16562 ± 1081 nmol/mL
O2^− [2, 8]: 17639 ± 1372 nmol/mL
Percent of control [2, 7]: −7 ± 6%
Percent of control [2, 8]: −6 ± 8%
O2^− ([2]; beclometasone 10^−6 mol/l, 20 hours, Table 3 series): 18240 ± 463 nmol/mL
O2^− ([2]; beclometasone 10^−7 mol/l, 20 hours, Table 3 series): 16782 ± 678 nmol/mL
Percent of control ([2]; beclometasone 10^−7 mol/l, vs FCS control, Table 3 series): +5.8 ± 4%
O2^− ([2]; beclometasone 10^−8 mol/l, 20 hours, Table 3 series): 16035 ± 639 nmol/mL
Percent of control ([2]; beclometasone 10^−8 mol/l, vs FCS control, Table 3 series): −1.1 ± 4%
O2^− ([2]; beclometasone 10^−9 mol/l, 20 hours, Table 3 series): 14192 ± 733 nmol/mL
Percent of control ([2]; beclometasone 10^−9 mol/l, vs FCS control, Table 3 series): −10.5±5%
O2^− ([2]; beclometasone 10^−10 mol/l, 20 hours, Table 3 series): 14702 ± 682 nmol/mL
Percent of control ([2]; beclometasone 10^−10 mol/l, vs FCS control, Table 3 series): −7.3 ± 5%
O2^− ([2]; beclometasone 10^−11 mol/l, 20 hours, Table 3 series): 15042 + 568 nmol/ml
Percent of control ([2]; beclometasone 10^−11 mol/l, vs FCS control, Table 3 series): −5.1 ± 3%
effect on the O2^− production ([2]; beclometasone 10^−11 to 10^−9 mol/l on its own, Table 6 series): no detectable effect on the O2^− production
O2^− ([2]; beclometasone 10^−12 mol/l, 20 hours, Table 3 series): 15050 ± 455 nmol/mL
Percent of control ([2]; beclometasone 10^−12 mol/l, vs FCS control, Table 3 series): −5.1 ± 3%
monocyte O2^− production ([2]; high concentrations (10^−8 mol/l and above) of beclometasone, FIG. 4): stimulated the monocyte O2^− production
